Drawing on the RepoRT retention time repository (doi:10.3390/metabo9050085), this text covers LC retention time for 96 compounds.

This data set can be described thus: Phenomenex Kinetex C18, 150 × 2.1 mm, 1.7 µm, 30 °C, 0.3 mL/min; A: water + 0.1% formic acid; B: acetonitrile + 0.1% formic acid; gradient (min/%B) 0/2 14/100 17/100 17/2 25/2. The settings on record: stereoisomer not certain.

In the case of `COc1cc2c(cc1O)C1CCC3(C)C(O)CCC3C1CC2` (stereo unspecified), the LC retention time was 9.26 min. The figure for `CC12CCC(O)CC1CCC1C2C(O)CC2(C=O)C(C(=O)CO)CCC12` (stereo unspecified) is 7.76 min.

Regarding `CC12CCCC1C1CC(O)C3(O)CC(O)CCC3(C)C1CC2` (stereo unspecified), the LC retention time was 10.5 min. The figure for `CC12CCC(O)CC1=CCC1C2C(O)CC2(C)C1CCC2(O)C(=O)CO` (stereo unspecified) is 8.15 min; for `CC(C(=O)O)C1CCC2C3C(O)CC4CC(O)CCC4(C)C3CC(O)C12C` (stereo unspecified) it is 8.37 min; for `CC12CCC(=O)C=C1CCC1C2C(O)CC2(CO)C1CCC2(O)C(=O)CO` (stereo unspecified) it is 6.52 min. As for `COc1c(O)ccc2c1CCC1C2CCC2(C)C(=O)CCC12` (stereo unspecified), the figure is 9.74 min. The figure for `CC(=O)C1C(O)CC2C3CCC4=CC(=O)CCC4(C)C3CCC21C` (stereo unspecified) is 9.08 min. As to `CC12CCC(O)CC1=CCC1C2CCC2(C)C1CCC2(O)C(=O)CO` (stereo unspecified), the LC retention time turned out to be 8.44 min. The figure for `CC(=O)C1(O)CCC2C3CCC4=CC(=O)CCC4(C)C3C(O)CC21C` (stereo unspecified) is 8.8 min; for `CC12CCC(O)CC1=CCC1C2CCC2(C)C(C(=O)CO)CCC12` (stereo unspecified) it is 10.5 min. As for `CC12CCC3c4ccc(O)c(O)c4CCC3C1CCC2O` (stereo unspecified), the figure is 7.61 min; as for `COc1cc2c(cc1O)CCC1C2CCC2(C)C(O)CCC12` (stereo unspecified), 10.5 min. As for `CC(CCC(=O)O)C1CCC2C3CC=C4CC(O)CCC4(C)C3CCC12C` (stereo unspecified), the figure is 15.8 min. Take `CC12CCC(=O)C=C1CCC1C2C(O)CC2(C)C(C(=O)C(=O)O)CCC12` (stereo unspecified): the LC retention time was determined as 8.1 min. As for `CC12CCC(=O)CC1CCC1C2C(O)CC2(C=O)C(C(=O)CO)CCC12` (stereo unspecified), the figure is 7.97 min; as for `CC(O)C1(O)CCC2C3CCC4CC(O)CCC4(C)C3C(=O)CC21C` (stereo unspecified), 8.66 min.

As for `CC12CCC3C(CC=C4CC(=O)CCC43C)C1CCC2=O` (stereo unspecified), the LC retention time worked out at 11 min. The figure for `CC12CC(O)C3C(CCC4=CC(=O)CCC43C)C1CCC2=O` (stereo unspecified) is 8.87 min; for `CC12CCC3C(CC=C4CC(OS(=O)(=O)O)CCC43C)C1CCC2=O` (stereo unspecified) it is 9.91 min; for `CC(=O)C1CCC2C3CCC4=CC(=O)CCC4(C)C3CCC12C` (stereo unspecified) it is 12.9 min. As for `CC12CCC3c4ccc(O)cc4CCC3C1CCC2=O` (stereo unspecified), the figure is 10.7 min; as for `CC12CCC(O)CC1CCC1C2CCC2(C)C(C(=O)CO)CCC12` (stereo unspecified), 11.3 min; as for `CC12CCC(O)C=C1CCC1C2CCC2(C)C(O)CCC12` (stereo unspecified), 9.76 min.

In the case of `CC12CCC(O)CC1CCC1C2C(=O)CC2(C)C1CCC2(O)C(=O)CO` (stereo unspecified), the LC retention time was found to be 8.38 min. As for `CC12CCC3C(CCC4=CC(=O)CCC43C=O)C1CCC2C(=O)CO` (stereo unspecified), the figure is 8.89 min. As for `CC(=O)C1(O)CCC2C3CCC4=CC(=O)CCC4(C)C3CCC21C` (stereo unspecified), the figure is 10.9 min. The figure for `CC12CCC3c4ccc(O)cc4CC(O)C3C1CCC2O` (stereo unspecified) is 7.15 min. As to `CC12CCC3C(CCC4=CC(=O)CCC43C)C1CCC2=O` (stereo unspecified), the LC retention time came out at 10.8 min. The figure for `CC12CC(=O)C3C(CCC4CC(O)CCC43C)C1CCC2C(=O)CO` (stereo unspecified) is 9.06 min; for `CC12CCC3C(CCC4=CC(=O)CCC43C=O)C1CCC2=O` (stereo unspecified) it is 9.42 min. The figure for `CC12CCC(=O)C=C1CCC1C2C(O)CC2(C)C(C(=O)CO)CCC12` (stereo unspecified) is 8.81 min; for `CC(O)C1(O)CCC2C3CCC4CC(O)CCC4(C)C3CCC21C` (stereo unspecified) it is 11 min.

On to `CC12CCC3C(CC(O)C4CC(O)CCC43C)C1CCC2O` (stereo unspecified), for which the LC retention time amounted to 8.18 min. As for `CC12CCC(=O)C=C1CCC1C2C(O)CC2(C)C(O)CCC12` (stereo unspecified), the figure is 8.2 min. The figure for `O=CC12CC(O)C3C4CCC(=O)C=C4CCC3C1CCC2C(=O)CO` (stereo unspecified) is 7.1 min. The figure for `CC(CCC(=O)O)C1CCC2C3CCC4CCCCC4(C)C3CC(O)C12C` (stereo unspecified) is 16.7 min. Regarding `CC12CCC(O)CC1=CC(O)C1C2CCC2(C)C(O)CCC12` (stereo unspecified), the LC retention time stood at 7.81 min. As for `CC12C=CC(=O)CC1CCC1C2CCC2(C)C(O)CCC12` (stereo unspecified), the figure is 9.97 min; as for `CC12CCC3C(CCC4=CC(=O)CCC43C(=O)O)C1CCC2C(=O)CO` (stereo unspecified), 8.03 min; as for `CC(=O)C1CCC2C3CC=C4CC(O)CCC4(C)C3CCC12C` (stereo unspecified), 13 min.

Turning to `CC12CCC3C4CCC(=O)CC4CCC3C1CCC2O` (stereo unspecified), the LC retention time came out at 9.72 min. As for `COc1cc2c(cc1O)CCC1C2CCC2(C)C(=O)CCC12` (stereo unspecified), the figure is 11.3 min; as for `CC12CCC3c4ccc(O)cc4CCC3C1CC(=O)C2=O` (stereo unspecified), 7.82 min; as for `CC12CCC(O)CC1CCC1C2C(=O)CC2(CO)C(C(=O)CO)CCC12` (stereo unspecified), 7.57 min. With `CC(O)C1(O)CCC2C3CCC4=CC(=O)CCC4(C)C3CCC21C` (stereo unspecified), the LC retention time came to 9.92 min.

As to `CC12CCC3c4ccc(O)cc4CCC3C1C(O)CC2=O` (stereo unspecified), the LC retention time was found to be 7.7 min.

As to `CC12CCC3C(C(O)CC4CC(O)CCC43C)C1CC(O)C2` (stereo unspecified), the LC retention time was determined as 7.39 min. As to `CC12CCC(=O)C=C1CCC1C2C(O)CC2(C)C1CCC2(O)C(=O)CO` (stereo unspecified), the LC retention time was found to be 7.61 min. As for `CC12CCC(=O)C=C1CCC1C2CCC2(C)C(OS(=O)(=O)O)CCC12` (stereo unspecified), the figure is 9.81 min; as for `CC12CCC(=O)C=C1CCC1C2C(O)CC2(C)C(C(=O)CC(=O)O)CCC12` (stereo unspecified), 9.18 min. As for `CC12CC(=O)C3C(CCC4CC(O)CCC43C)C1CCC2C(O)CO` (stereo unspecified), the figure is 8.54 min; as for `CC12CCC3C(C(O)CC4=CC(=O)CCC43C)C1CCC2=O` (stereo unspecified), 7.78 min. The figure for `CC12CCC3c4ccc(OS(=O)(=O)O)c(O)c4CCC3C1CCC2=O` (stereo unspecified) is 7.73 min; for `CC12CCC(O)CC1CCC1C2C2CC3(C(O)O2)C(C(=O)CO)CCC13` (stereo unspecified) it is 7.18 min; for `CC12CCC3c4ccc(O)cc4C(O)CC3C1CCC2=O` (stereo unspecified) it is 7.97 min. Regarding `CC12CCC(O)CC1CCC1C2CC(O)C2(C)CCC(O)C12` (stereo unspecified), the LC retention time stood at 6.31 min.

On to `CC12CCC(O)CC1=CCC1C2CCC2(C)C(O)CCC12` (stereo unspecified), for which the LC retention time stood at 10.8 min. The figure for `CC12CCC3c4ccc(O)cc4C(=O)CC3C1CC(O)C2O` (stereo unspecified) is 6.59 min. On to `CC12CCC3c4cc(O)c(O)cc4CCC3C1CCC2=O` (stereo unspecified), for which the LC retention time turned out to be 8.07 min. The figure for `CC12CCC(=O)C=C1CC(O)C1C2CCC2(C)C(O)CCC12` (stereo unspecified) is 7.06 min; for `CC12C=CCC1C1CCC3CC(O)CCC3(C)C1CC2` (stereo unspecified) it is 11.9 min. The figure for `CC(=O)C1=CCC2C3CCC4=CC(=O)CCC4(C)C3CCC12C` (stereo unspecified) is 12.7 min; for `CC(=O)C1(O)CCC2C3CC=C4CC(O)CCC4(C)C3CCC21C` (stereo unspecified) it is 10.7 min; for `CC12CCC3C(C(=O)CC4CC(O)CCC43C)C1CCC2=O` (stereo unspecified) it is 8 min. The figure for `CC12CCC(=O)C=C1CCC1C2CCC2(C)C(O)CC(O)C12` (stereo unspecified) is 6.97 min; for `CC12CCC3C(C(O)CC4CC(O)CCC43C)C1CCC2=O` (stereo unspecified) it is 8.74 min.

In the case of `COc1cc2c(cc1OC)C1CCC3(C)C(O)CCC3C1CC2` (stereo unspecified), the LC retention time was 11.5 min. On to `CC12CCCC1C1CCC3CC(O)CCC3(C)C1CC2` (stereo unspecified), for which the LC retention time is 12.9 min. The figure for `CC(=O)C1C(O)CC2C3CC=C4CC(O)CCC4(C)C3CCC21C` (stereo unspecified) is 9.87 min; for `CC12CCC(=O)C=C1CCC1C2C(=O)CC2(C)C(C(=O)CO)CCC12` (stereo unspecified) it is 8.53 min.

On to `CC12CCC(=O)C=C1CCC1C2C(=O)CC2(C)C1CCC2(O)C(=O)CO` (stereo unspecified), for which the LC retention time amounted to 7.75 min. With `COc1cc2c(cc1O)C1CCC3(C)C(=O)CCC3C1CC2` (stereo unspecified), the LC retention time is 9.83 min.

`CC12CCC3c4ccc(O)c(O)c4CCC3C1CCC2=O` (stereo unspecified): the LC retention time worked out at 8.06 min. As for `CC12CCC(=O)C=C1CCC1C2CCC2(C)C1CCC2(O)C(=O)CO` (stereo unspecified), the figure is 9.04 min; as for `CC12CCC(=O)C=C1CCC1C2CCC2(C)C(C(=O)CO)CCC12` (stereo unspecified), 10.5 min; as for `CC12CCC(=O)C=C1CCC1C2C(O)CC2(CO)C(C(=O)CO)CCC12` (stereo unspecified), 7.34 min.

Turning to `CC(=O)C1CCC2C3=CC=C4CC(O)CCC4(C)C3CCC12C` (stereo unspecified), the LC retention time turned out to be 11.6 min. As for `CC12CCC3C(CCC4=CC(=O)CCC43CO)C1CCC2=O` (stereo unspecified), the LC retention time came to 7.72 min. As for `CC12CCC3C4=CC(=O)C(=O)C=C4CCC3C1CCC2O` (stereo unspecified), the figure is 7.58 min; as for `CC12CCC(=O)C=C1CCC1C2C(O)CC2(C=O)C1CCC2(O)C(=O)CO` (stereo unspecified), 6.76 min. As for `CC12CCC3c4ccc(O)cc4C(O)CC3C1CCC2O` (stereo unspecified), the figure is 7.01 min; as for `CC12CCC3c4ccc(OS(=O)(=O)O)cc4CCC3C1CCC2=O` (stereo unspecified), 8.65 min; as for `CC(O)C1CCC2C3CCC4CC(=O)CCC4(C)C3CCC12C` (stereo unspecified), 13.9 min.

Turning to `CC(O)C1CCC2C3CCC4=CC(=O)CCC4(C)C3CCC12C` (stereo unspecified), the LC retention time is 12 min. As for `CC12CCC3C(CCC4=CC(=O)CCC43C=O)C1CCC2O` (stereo unspecified), the figure is 8.59 min. The figure for `CC12CCC3c4ccc(O)cc4CCC3C1C(O)CC2O` (stereo unspecified) is 7.33 min. Take `CC(=O)C1CCC2C3C(O)C=C4CC(O)CCC4(C)C3CCC12C` (stereo unspecified): the LC retention time worked out at 8.93 min.

As for `CC12CCC(O)CC1=CCC1C2CCC2(C)C(O)C(=O)CC12` (stereo unspecified), the LC retention time is 8.03 min. With `CC12CC(=O)C3C(CCC4=CC(=O)CCC43C)C1CCC2=O` (stereo unspecified), the LC retention time was determined as 8.68 min.

In the case of `CC12CCC(=O)CC1CCC1C2CCC2(C)C(OS(=O)(=O)O)CCC12` (stereo unspecified), the LC retention time came out at 10.6 min. As for `CC12CCC3C(CCC4CC(OS(=O)(=O)O)CCC43C)C1CCC2=O` (stereo unspecified), the figure is 10.5 min; as for `CC12CCC3C(CCC4=CC(=O)CCC43CO)C1CCC2O` (stereo unspecified), 7.3 min. The figure for `CC12CCC(O)CC1CCC1C2CCC2(C)C1CCC2(O)C(=O)CO` (stereo unspecified) is 10.1 min; for `CC12CCC3c4cc(O)c(O)cc4CCC3C1CCC2O` (stereo unspecified) it is 7.86 min.

With `CC12CCC3C4=C(CCC3C1CCC2O)C(=O)C(=O)C=C4` (stereo unspecified), the LC retention time turned out to be 7.81 min.
